Test results published in PubChem BioAssay (NCI).
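These data come from cells grown in 96-well plates and exposed to compound for 48 hours at five concentrations. TGI: total growth inhibition.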

Assays:
Assay in all cases: NCI tumour cell line growth inhibition, 48 h
A549 NSCLC = tested on: A549 NSCLC
CCRF-CEM leukemia = tested on: CCRF-CEM leukemia
DU-145 prostate = tested on: DU-145 prostate
EKVX NSCLC = tested on: EKVX NSCLC
IGROV1 ovarian = tested on: IGROV1 ovarian
LOX IMVI melanoma = tested on: LOX IMVI melanoma
MDA-MB-231 breast = tested on: MDA-MB-231 breast
NCI/ADR-RES ovarian = tested on: NCI/ADR-RES ovarian
OVCAR-4 ovarian = tested on: OVCAR-4 ovarian
PC-3 prostate = tested on: PC-3 prostate
RPMI-8226 leukemia = tested on: RPMI-8226 leukemia
SF-295 CNS = tested on: SF-295 CNS
SK-MEL-28 melanoma = tested on: SK-MEL-28 melanoma
SNB-19 CNS = tested on: SNB-19 CNS
SW-620 colon = tested on: SW-620 colon
T-47D breast = tested on: T-47D breast
UACC-257 melanoma = tested on: UACC-257 melanoma
UACC-62 melanoma = tested on: UACC-62 melanoma

Compound	TGI (A549 NSCLC) [µM]	TGI (CCRF-CEM leukemia) [µM]	TGI (DU-145 prostate) [µM]	TGI (EKVX NSCLC) [µM]	TGI (IGROV1 ovarian) [µM]	TGI (LOX IMVI melanoma) [µM]	TGI (MDA-MB-231 breast) [µM]	TGI (NCI/ADR-RES ovarian) [µM]	TGI (OVCAR-4 ovarian) [µM]	TGI (PC-3 prostate) [µM]	TGI (RPMI-8226 leukemia) [µM]	TGI (SF-295 CNS) [µM]	TGI (SK-MEL-28 melanoma) [µM]	TGI (SNB-19 CNS) [µM]	TGI (SW-620 colon) [µM]	TGI (T-47D breast) [µM]	TGI (UACC-257 melanoma) [µM]	TGI (UACC-62 melanoma) [µM]
O=C(C(=O)N1CCc2ccccc21)c1c[nH]c2ccccc12	> 10	> 10	> 10	> 10	> 10	> 10	> 10	> 10	> 10	> 10	> 10	> 10	> 10	> 10	> 10	> 10	> 10	> 10
COc1cccc(OC)c1/C=C1\OC(=O)c2cccc(OC)c21	> 100	> 100	> 100	> 100	> 100	> 100	> 100	> 100	> 100	> 100	> 100	> 28.2	> 100	> 100	> 100	> 100	> 100	> 31
CC(=O)c1csc2c1C(=O)c1scc(C(C)=O)c1C2=O	4.19	1.82	3.34	3.36	3.08	2.9	1.43	3.9	1.65	7.49	3.14	3.09	3.64	3.32	3.73	1.2	2.41	3.56
O=C(O)c1nc(-c2ccccn2)c(-c2ccccn2)nc1C(=O)O	11.9	> 43.1	12.1	13.6	21	16.7	30.5	> 23.1	12.5	20.9	> 100	21.8	11.1	19.1	18.8	24.1	16.4	6.27
Cc1ccc(S(=O)(=O)C2=Cc3ccc(C(F)(F)F)cc3C2(O)c2cccc(C(F)(F)F)c2)cc1 (stereo unspecified)	8.61	8.17	10.3	9.83	7.03	3.52	5.06	8.51	4.05	8.03	> 23	6.87	3.75	16.8	3.85	11	3.93	5.71
C#CCn1ncc2c(SCc3ccccc3)ncnc21	> 100	> 100	> 100	> 100	> 100	> 100	> 100	> 100	> 100	> 100	> 100	> 100	> 100	> 100	> 100	27.1	> 100	> 100
Cc1cccc(/C=N/NC(=S)NCCc2ccccn2)n1	> 100	> 72.9	> 86.3	> 100	> 100	> 100	> 100	> 73.7	> 100	> 100	> 93	> 100	> 100	> 100	> 100	> 100	> 100	56.7
